Data taken from patent publication US20240024403A1, “Compositions and Methods for Managing Weight” (Unigen, Inc., priority 2012, published 2024).

Assays:
Assay type in all cases: in vivo
leptin = assay: Plasma leptin level in DIO mice (ELISA); settings: for Leptin (ng/ml) 2-week / Leptin (ng/ml) 7-week: DIO mice plasma; for Leptin (ng/ml) 2-week: 2-week treatment; for Leptin (ng/ml) 7-week: 7-week treatment; for plasma leptin level vs HFD group: week 2 and week 7, Composition 2 1300 mg/kg/day, orlistat 40 mg/kg 2 times/day, sibutramine 10 mg/kg 1 time/day
Protocol: Obese mice were treated with various three component compositions to test the anti-obesity and appetite effects of such compositions. Three component Composition 1 (Magnolia:Morus:Yerba Mate) produced according to the Example 38, three component Composition 2 (Magnolia:Morus:Mutamba) produced according to the Example 42, three component Composition 3 (Morus: Rosemary:Yerba Mate) produced according to the Example 39, and three component Composition 9 (Morus:Rosemary:Areca) produced according to the Example 41, were each separately administrated orally to DIO mice as described in the Example 48. The high fat diet (HFD) mice were divided into multiple treatment groups with a total of 10 animals per group. The mice were treated with one of the following: Composition 1 (1300 mg/kg/day), Composition 2 (1300 mg/kg/day), Composition 3 (1700 mg/kg/day), or Composition 9 (1700 mg/kg/day). Control groups included a normal diet group given vehicle only (ND, negative control), a high fat diet group given vehicle only (HFD, negative control), an orlistat group (ORI, 40 mg/kg, 2 times/day, positive control), and a sibutramine group (10 mg/kg, 1 time/day, positive control). Body weight and feed intake were measured daily for 2 weeks after treatment and then twice a week until the end of the 7 week study. At week 2 and week 7 after treatment, mice were fasted for 16 hours and then five animals were examined to measure plasma concentrations of leptin and ghrelin. Leptin and ghrelin levels were measured by using commercial ELISA kits specific for leptin or ghrelin (Millipore Co., Billerica, MA) according to the manufacturer's instructions. Measurements were taken using a microplate reader (Victor™ X3, PerkinElmer Inc., USA) and analyzed with PerkinElmer 2030 workstation computer software.

CCK peptide = CCK peptide levels in DIO mice (CCK ELISA); settings: mice on high fat diet; after 7 weeks of administering; % ± SD
Protocol: Therefore, the effect on CCK peptide levels in mice from treatment with Composition 2 (Magnolia:Morus:Mutamba), produced according to the Example 42, or Composition 3 (Morus:Rosemary:Yerba Mate), produced according to the Example 39, was examined to determine the extent to which weight gain and/or appetite were affected through this peptide hormone pathway. Briefly, CCK peptide levels were measured after 7 weeks of administering Compositions […] and 3 to mice on a high fat diet as described in Example 48. Negative controls include mice on a normal diet (NC) and mice on a high fat diet (HFD), each group administered vehicle only. The positive controls were orlistat and sibutrimine. CCK levels were detected using a CCK ELISA assay kit according to the manufacturer's instructions (Abnova, Taipei City, Tiawan). Measurements were performed using microplate reader Victor™ X3 (PerkinElmer Inc., Waltham, MA) and computer software on the PerkinElmer 2030 workstation.

[1] = 14-day study in high-fat-diet fed C57BL/6J mice; settings: 30 mg/kg daily oral, 14 days
Text: A 14-day study was used to evaluate the effect of Mutamba EtOH extract fraction 84/F6 on body weight gain in high-fat-diet (HFD) fed C57BL/6J mice. Male C57BL/6J mice at the age of 6 weeks were purchased from Charles River Laboratories (Wilmington, MA) and acclimated for one week. On the day 0 (treatment start), body weights were taken for all the mice and randomly assigned to a group of four treatment groups as follows: (1) 8 mice/group received positive control=Alli; (2) 15 mice/group received Mutamba fraction 84/F6; (3) 8 mice/group received vehicle only (0.5% carboxymethyl cellulose) given to HFD control; and (4) 8 mice/group received vehicle only given to untreated normal diet control. Mice received a daily oral dose of Alli at 30 mg/kg and Mutamba 84/F6 at 1 g/kg for 14 days. Once mice received their first respective dose, they were provided ad libitum a 60% kcal high fat-diet, except for the normal diet group. Body weights were taken daily for the duration of study except on weekends. […] Blood glucose levels were measured using the Contour blood glucose monitoring kit (Bayer Health Care). Total triglyceride and cholesterol levels were measured using the CardioChek Analyzer with PTS panel test strips (Polymer Technology System, Inc, Indianapolis, IN).

Row | Structure (SMILES) | Leptin (ng/ml) 2-week (leptin) | Leptin (ng/ml) 7-week (leptin) | plasma leptin level vs HFD group (leptin) | % CCK binding (CCK peptide) | body weight gain vs vehicle treated HFD group [1] | fasting blood glucose, total cholesterol, triglyceride vs vehicle treated HFD group [1]
1 | CCCCCCCCCCC[C@@H](C[C@@H]1OC(=O)[C@H]1CCCCCC)OC(=O)[C@H](CC(C)C)NC=O [ORI, orlistat] | 11.6 ± 0.06 ng/mL | 19.0 ± 0.24 ng/mL | significantly reduced leptin level after 2 weeks of treatment | 72.5 ± 3.4% | decrease in weight gain only on day 14 of treatment | statistically significant higher levels of fasting triglyceride
2 | CC(C)CC(N(C)C)C1(c2ccc(Cl)cc2)CCC1 (stereo not shown) [SIB, sibutramine] | 17.0 ± 0.43 ng/mL | 20.4 ± 0.00 ng/mL | somewhat reduced leptin level after 2 weeks of treatment | 12.3 ± 1.6% |  | 
